Source: patent publication US20070078116A1, “Method of treatment of otitis externa” (Fairfield Clinical Trials, LLC, priority 2003, published 2007)

Legend:
[1] = tested on: Candida albicans (ATCC 90028); assay: Filter paper disk test on agar plates containing C. albicans; assay type: cell-based; conditions: 5 μL or 10 μL on paper disk, 37° C., 24-72 hours
Experimental: (§1) Candida albicans (ATCC 90028) and Aspergillis fumigatus (ATCC 16424) were tested in vitro for the effect of antifungal compositions according to embodiments of the invention. Fungal cells were obtained from the American Type Culture Collection.
(§2) C. Albicans yeast cells were grown in YM broth (Difco™ 0711-01) containing the following ingredients: 1% peptone, 1% yeast extract and 2% glucose. The cells were grown at 37° C., harvested by centrifugation, resuspended in the same medium and stored frozen at −80° C. The cells were used at a concentration of about 1×10^6 cells/mL. A. fumigatus was cultured on solid MPG containing 20 g/L malt extract (Difco™ 21860); 1 g/L Difco™ 211677); 20 g/L sucrose and 15 g/L Bacto-agar (Difco™ 140-07-04) in water, at 37° C. for 7 to 10 days. Conidia were harvested by flooding the medium with sterile water, filtered through glass wool to exclude hyphal fragments, washed by centrifugation (5000 xg for 10 minutes at 4° C., resuspended at about 1×10^6 conidia/mL in water and stored at −80° C. until used.
(§3) For testing, A. fumigatus conidia and C. albicans cells were thawed. […]
(§4) Samples (5 μL, 10 μL or 20 μL as indicated in the Figures) of liquid drug formulation were placed on sterile filter paper disks and the disks allowed to air dry 15-30 minutes at room temperature in a Class II biosafety hood. […] A portion of each sample was analyzed for potency. […]

[2] = tested on: Aspergillis fumigatus (ATCC 16424); assay: Filter paper disk test on agar plates containing A. fumigatus (zone of killing); assay type: cell-based; conditions: 5 μL or 10 μL on paper disk, 37° C., 24-72 hours
Experimental: as §1, §2, §3, §4

Clc1ccc(COC(Cn2ccnc2)c2ccc(Cl)cc2Cl)c(Cl)c1 (centres unmarked) [Miconazole, miconazole]
killing of C. albicans (visual observation of plates) [1]: highly active
killing of A. fumigatus (visual observation of plates) [2]: highly active
